# Laboratory results taken from paper PMC10084949, “Peptide Variant Detection by a Living Yeast Biosensor via an Epitope-Selective Protease” (Biodesign Research, 2023).
# Peptide text beside a SMILES is read from it.
# How the values were obtained:
# [1] = biological target: T1, SpSte2 with SpSxa2 or other fungal proteases (Schizosaccharomyces pombe, UniProt Q00619); experiment: Dose-response of SpSte2 fluorescent strains with cognate or noncognate proteases; type: cell-based
# T1 construct: we cloned codon-optimized open reading frames (ORFs) of all 5 proteases and GPCRs; expressed in transfected cells; host or cells: S. cerevisiae strains from yTC370 (yTC530, yTC529, yTC531-534, yTC525, yTC526); two genome-integrated pTDH3-SpSTE2 copies
# T1 sequence (Q00619 1-348): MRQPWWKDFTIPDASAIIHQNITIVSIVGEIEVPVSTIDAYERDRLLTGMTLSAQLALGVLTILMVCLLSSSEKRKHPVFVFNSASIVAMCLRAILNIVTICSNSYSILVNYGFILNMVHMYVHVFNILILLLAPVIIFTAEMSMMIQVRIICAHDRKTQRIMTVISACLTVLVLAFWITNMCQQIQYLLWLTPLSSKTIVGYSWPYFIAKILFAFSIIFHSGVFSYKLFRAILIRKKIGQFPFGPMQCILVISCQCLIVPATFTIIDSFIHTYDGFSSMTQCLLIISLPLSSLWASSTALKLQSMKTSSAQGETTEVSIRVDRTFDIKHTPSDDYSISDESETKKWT
# Procedure: (§1) Glycerol stocked strains were streaked out on YPD plate and incubated for 2 days. Three colonies were picked, replated on YPD plate, incubated for 1 day, and then stored at 4 °C. For activation assays, a small scoop of yeast patch from the 3 colonies was resuspended in ~4 ml of YPD medium and incubated overnight. Overnight cells were seeded at an optical density at 600 nm (OD600) of 0.15 (as measured in 96-well plate at 200-μl volume) in SC/Glc medium after washing twice with sterile Mili-Q H2O. GPCR activity and response to increasing concentrations of synthetic peptide ligands were measured in strains carrying appropriate genome-integrated components in 96-well microtiter plates in 200-μl total volume and cultured at 30 °C and 800 rpm, unless otherwise stated. All measurements were performed in biological triplicate. Culture turbidity (OD600) and fluorescence for ymTurquoise2 (excitation, 439 nm; emission, 475 nm; gain, 75) were measured after 0 and 8 h using an Infinite 200 Pro plate reader (Tecan). Dose–response curve was measured at 11 different concentrations of the appropriate synthetic peptide ligand with a constant dilution factor and a no-peptide, H2O control. The absorbance at 600 nm normalized fluorescence values and log10-transformed peptide concentrations were fit to a 4-parameter nonlinear regression model using Prism (GraphPad) to extract GPCR-specific values for basal activation, maximal activation, EC50, and the Hill coefficient.
# (§2) To validate the effect of peptide proteases on their complementary and noncomplementary peptides (Table S8), from the parent strain yTC370, we engineered 30 strains (Table S1).
# (§3) Next, to validate whether we can control the extent of peptide cleavage by their cognate proteases by modulating the concentration of expressed protease, we constitutively expressed proteases under promoters of different expression levels. For the purpose of determining the protease’s specificity in previous section (S1), all proteases were expressed under pCCW12, which is one of the strongest characterized promoters in yeast. Here, we introduced 2 additional promoters to convey medium and low expression levels of the proteases. We selected pRPL18B for medium expression and pRAD27 for low expression level. We cloned these promoters upstream from protease ORFs in Golden Gate cassette plasmids, assembled the protease cassettes with their cognate GPCRs and fluorescent readout, and integrated into parent yTC370 strain (see Materials and Methods and Table S1). Then, we compared dose–response curves of strains responding to their cognate peptides without the protease or with protease at 3 different expression levels (low, medium, and high) (S2).
# [2] = test system: SoSte2 with SoSxa2 or other fungal proteases; experiment: Dose-response of SoSte2 fluorescent strains with cognate or noncognate proteases; type: cell-based, Schizosaccharomyces octosporus
# Sequence of SoSte2 with SoSxa2 or other fungal proteases (as listed by the source): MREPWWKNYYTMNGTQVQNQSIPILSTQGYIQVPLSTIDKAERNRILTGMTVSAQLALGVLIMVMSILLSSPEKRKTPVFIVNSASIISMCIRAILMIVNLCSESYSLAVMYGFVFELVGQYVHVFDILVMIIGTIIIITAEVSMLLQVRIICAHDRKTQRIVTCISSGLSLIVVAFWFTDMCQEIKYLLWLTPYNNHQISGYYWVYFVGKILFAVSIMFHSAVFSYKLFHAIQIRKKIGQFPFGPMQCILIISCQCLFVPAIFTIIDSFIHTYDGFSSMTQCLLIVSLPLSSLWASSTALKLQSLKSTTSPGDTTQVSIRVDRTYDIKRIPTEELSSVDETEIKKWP
# Procedure: as §1, with “coefficient. […]” for “coefficient.”
# Next, to validate whether we can control the extent of peptide cleavage by their cognate proteases by modulating the concentration of expressed protease, we constitutively expressed proteases under promoters of different expression levels. […] We cloned these promoters upstream from protease ORFs in Golden Gate cassette plasmids, assembled the protease cassettes with their cognate GPCRs and fluorescent readout, and integrated into parent yTC370 strain (see Materials and Methods and Table S1). […]
# [3] = test system: SjSte2 with SjSxa2 or other fungal proteases; experiment: Dose-response of SjSte2 fluorescent strains with cognate or noncognate proteases; type: cell-based, Schizosaccharomyces japonicus
# Sequence of SjSte2 with SjSxa2 or other fungal proteases (as listed by the source): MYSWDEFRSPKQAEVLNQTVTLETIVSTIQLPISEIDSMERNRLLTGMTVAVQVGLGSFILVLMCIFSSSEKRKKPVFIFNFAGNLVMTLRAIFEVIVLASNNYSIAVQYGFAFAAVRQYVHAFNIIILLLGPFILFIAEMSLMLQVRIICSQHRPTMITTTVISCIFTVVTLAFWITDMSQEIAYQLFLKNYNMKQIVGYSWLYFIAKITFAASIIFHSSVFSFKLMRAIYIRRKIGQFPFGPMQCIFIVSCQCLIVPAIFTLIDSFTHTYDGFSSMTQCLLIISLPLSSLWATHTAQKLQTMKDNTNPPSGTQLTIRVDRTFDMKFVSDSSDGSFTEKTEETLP
# Procedure: as §1, §2, §3
# [4] = noncomplementary proteases, pCCW12, fluorescent readout
compound,measurement,setting,value
CC(C)C[C@H](NC(=O)[C@H](CC(N)=O)NC(=O)[C@@H]1CCCN1C(=O)[C@H](CCCNC(=N)N)NC(=O)[C@H](CC(=O)O)NC(=O)[C@@H]1CCCN1C(=O)[C@H](CC(N)=O)NC(=O)[C@@H](NC(=O)[C@H](Cc1ccccc1)NC(=O)[C@@H](NC(=O)[C@H](CC(N)=O)NC(=O)[C@H](Cc1c[nH]c2ccccc12)NC(=O)[C@H](CO)NC(=O)[C@H](CCC(N)=O)NC(=O)[C@H](Cc1ccc(O)cc1)NC(=O)[C@H](C)NC(=O)[C@H](CCCNC(=N)N)NC(=O)[C@H](CC(C)C)NC(=O)[C@H](Cc1ccccc1)NC(=O)[C@H](CC(=O)O)NC(=O)[C@H](C)NC(=O)[C@H](Cc1ccc(O)cc1)NC(=O)[C@@H](N)[C@@H](C)O)[C@@H](C)O)C(C)C)C(=O)O [SpPep] (H-TYADFLRAYQSWNTFVNPDRPNL-OH; N-terminus and C-terminus assumed),effect of cognate protease SpSxa2 on response,"[1]; SpSxa2 under pCCW12 (high expression), fluorescent readout, 8 h",practically completely attenuated the response
same,EC50 shift with low SpSxa2 expression,"[1]; SpSxa2 under pRAD27 (low expression), fluorescent readout, 8 h",did not show notable apparent EC50 shift
same,EC50 shift with medium SpSxa2 expression,"[1]; SpSxa2 under pRPL18B (medium expression), fluorescent readout, 8 h",~2 orders of magnitude
same,cleavage by ScBar1 and CaBar1,[1]; [4],did not cleave
same,apparent EC50 with complementary protease SpSxa2,"[1]; out of the measurable peptide concentration range, pCCW12, fluorescent readout",> 100 µM
same,apparent EC50 shift with noncomplementary proteases SjSxa2 and SoSxa2,"[1]; pCCW12, fluorescent readout",between half and one order of magnitude
"TYEDFLRVYKNWWSFQNPDRPDL [SoPep, S. octosporus pheromone peptide, synthetic]",EC50 shift with low and medium SoSxa2 expression,"[2]; SoSxa2 under pRAD27 or pRPL18B, compared to strain with no protease",did not notably shift the apparent EC50
same,cleavage by ScBar1 and CaBar1,[2]; [4],did not cleave
same,apparent EC50 shift with noncomplementary proteases SjSxa2 and SpSxa2,"[2]; pCCW12, fluorescent readout",between half and one order of magnitude
"VSDRVKQMLSHWWNFRNPDTANL [SjPep, S. japonicus pheromone peptide, synthetic]",apparent EC50 shift with complementary protease SjSxa2,"[3]; SjSxa2 under pCCW12 (high expression), fluorescent readout, 8 h",over one order of magnitude
same,EC50 shift with low SjSxa2 expression,[3]; SjSxa2 under pRAD27 (low expression),did not affect EC50
same,apparent EC50 shift with medium and high SjSxa2 expression,"[3]; SjSxa2 under pRPL18B and pCCW12, out of measurable range (>100 μM)",more than 2 orders of magnitude
same,EC50,"[3]; out of the measurable peptide concentration range, pCCW12, fluorescent readout, read-out: apparent EC50 with complementary protease SjSxa2",> 100 µM
